Where a name gives a salt, the structure may show the parent alone.
Experiment: Diffusion of solvents in a 5.6 W electric diffuser (Example 1)
Type: physicochemical
Settings: 48 ml solvent, average per day over 30 days
Protocol: 48 ml of solvent to be tested are placed in a 5.6 W electric diffuser. The amount of solvent diffused is measured for 30 days following plugging in of the diffuser, and the average diffusion of product per day is calculated and summarized in Table 1 below: […]

CO[C@H]1CO[C@H]2[C@@H]1OC[C@H]2OC [Isosorbide dimethyl ether]
Diffusion of product: 2 g/day

CC(C)OC(=O)CCCCCCCCC(=O)OC(C)C [Diisopropyl sebacate]
Diffusion of product: 1 g/day

CCOC(=O)CC(O)(CC(=O)OCC)C(=O)OCC [Triethyl citrate]
Diffusion of product: 1 g/day

CC1COC(=O)O1 (stereo not shown) [Propylene carbonate]
Diffusion of product: 4 g/day

Glycofurol
Diffusion of product: 0.5 g/day

CCCCCCCCCCCCCC(=O)OC(C)C [Isopropyl myristate]
Diffusion of product: 1 g/day

CC(C)CCCCCCOC(=O)CCCCCC(C)C [Isononyl isononanoate]
Diffusion of product: 2 g/day

— patent US10058526B2, “Compositions containing pheromones for treating behavioural or medical problems linked to the stress of non-human mammals” (CEVA SANTE ANIMALE, priority 2014, dated 2018)
